In BindingDB's records for PubMed 1857334 (National Institute of Mental Health, 1991):
pKi: −log10 of the molar value.

Molecular target: T1, Adenosine receptor A1 (Rattus norvegicus, UniProt P25099)
T1 sequence (P25099 whole entry): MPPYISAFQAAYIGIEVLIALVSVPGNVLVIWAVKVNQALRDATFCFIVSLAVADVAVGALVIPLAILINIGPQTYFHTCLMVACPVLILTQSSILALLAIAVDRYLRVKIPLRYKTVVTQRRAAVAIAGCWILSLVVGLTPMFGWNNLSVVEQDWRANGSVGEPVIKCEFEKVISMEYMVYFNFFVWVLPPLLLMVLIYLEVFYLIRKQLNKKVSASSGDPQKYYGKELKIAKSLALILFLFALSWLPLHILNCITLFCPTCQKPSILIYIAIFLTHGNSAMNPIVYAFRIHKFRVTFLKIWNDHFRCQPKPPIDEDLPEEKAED

CCCn1c(=O)c2[nH]c(-c3ccc(OCC(=O)NCCN)cc3)nc2n(CCC)c1=O [N-(2-Amino-ethyl)-2-[4-(2,6-dioxo-1,3-dipropyl-2,3,6,9-tetrahydro-1H-purin-8-yl)-phenoxy]-acetamide]
pKi: 8.70
